Results reported in US20240016784A1, “Y BOX BINDING PROTEIN 1 INHIBITORS” (Oregon Health & Science University, priority 2020, published 2024).

Legend:
[1] = test system: MDA-MB-231, MDA-MB-468 and SUM 159 cells; experiment: Cell cycle distribution in TNBC cells (flow cytometry); format: cell-based; conditions: 12 and 24 hr
Procedure: FIG. 11A). The growth inhibitory effect of SU056 was evaluated using MTT assay. TNBC cell lines (MDA-MB-231, MDA-MB-468, SUM159, 4T1, E0771 and EMT6) were plated in 96 well plate. Next day, treated with vehicle (DMSO) alone or 0.005-50 μM of SU056 in fresh medium. After 48 hr of treatments, cell viability was measured using MTT assay. FIG. 11B). A total of 300-600 cells were plated per well of a 12-well plate and allowed to attach for 24 hr. […] Representative colony formations from respective wells of cell. FIG. 11C) Number of colonies formed after SU056 treatment. FIG. 11D) Effect of SU056 on cell cycle distribution in TNBC cells. MDA-MB-231, MDA-MB-468 and SUM 159 cells were treated with vehicle or SU056 for 12 and 24 hr. At the end of treatment, cells were collected and analysed using flow cytometry. […] SU056 induces level of phosphor-Histone H3 in cells at 12 and 24 hr.

OC cell lines = experiment: Cell migration assay (Boyden chamber); format: cell-based; conditions: different OC cell lines, P<0.05
Procedure: To determine whether proliferation inhibition was the dominant factor driving the reduction in OC viability seen with AzP treatment, we used propidium iodide and annexin-FITC stains with flow cytometry to measure the distribution of cell cycle phases after treatment. […] Furthermore, in the Boyden chamber assay for cell migration, SU093 inhibited cell migration by 40-46% (1 μM, P<0.05) in different OC cell lines.
Cell migration assay: 1×10^5 cells were plated in 60 mm cell culture dishes (Corning-Falcon, #353002) and incubated for 24 h. […] Cells were trypsinized and collected in a conical tube for each plate. Pellets of cells were resuspended, and live cells were counted using a hemocytometer and trypan blue staining. 40,000 live cells were then plated in the upper chamber of 8-micron transwell (Corning-Falcon, #353097) with 0.2% FBS media. The lower chamber contained 10% FBS complete media. […] Each transwell was washed, swiped for non-migrated cells and fixed using 75% ethanol. Fixed transwells were stained with 0.5% crystal violet for 1 h. De-stained transwell membranes were cut and mounted on a slide using DPX mounting media. Migrated cells were counted under the microscope at 100× magnification.
FIG. 1A) Lead optimization of SU093 to obtain SU056. […] FIG. 1G) Effects of SU093 and SU056 on apoptotic cell death analyzed by Annexin-FITC staining. […]

YB-1 and MDR1 expression = experiment: Immunohistochemistry of ID8 tumor xenograft samples; format: in vivo, mice; conditions: SU056 20 mg/kg
Procedure: Out of six targets identified, we selected proteins whose thermal shift is above 5° in the presence of SU056 for further study of protein expression after treatment. […] To study the in vivo effects of SU056 treatment, we analyzed ID8 tumor xenograft samples via immunohistochemistry (IHC). […] To identify the broader effects of SU056 on YB-1 and its downstream protein/activity in different ovarian cancer cell lines, we selected six different cell lines and treated them with SU056 (2.5 μM) for 12 h. Cells were analyzed for YB-1 and CD44 expression and Multidrug resistance 1 (MDR1, ABC pump mediated efflux). […] Finally, we tested the time kinetics and dose-dependent effects of SU056 on YB-1 expression. OVCAR4, OVCAR8, and SKOV3 cells were treated with SU056 (1, 2.5, and 5 μM) for 3, 6, 12, and 24 h and YB-1 expression was measured using YB-1 ELISA. […] 5 μM treatment for 24 h inhibited YB-1 completely (100%) in all three OC cells (FIG. 4E).
Immunohistochemistry: Fixed tumors and organs were embedded in paraffin. Each block was cut in 5 μm sections and fixed on poly-L lysine-coated slides. […]
(§1) FIGS. 4A-4E: SU056 inhibits YB-1. […] FIG. 4C) Respective OC cells were treated with 2.5 μM SU056 for 12 h and YB-1 & CD44 expression and multidrug resistance activity was measured as described in the ‘method’ section. The % inhibition was calculated and compared to the control for the respective cell line. […]

[2] = test system: OVCAR4, OVCAR5 and ID8 cells; experiment: Cell viability (MTT) assay, ovarian cancer cell lines; format: cell-based; conditions: 48 h of treatment
Source text: We tested the relationship between AzPs dose and the viability of human ovarian cancer cell lines and the ID8 murine ovarian cancer cell line.
FIG. 1A) Lead optimization of SU093 to obtain SU056. FIG. 1B) IC50 values of SU093 and SU056 on various ovarian cancer cells. Clonogenic survival of OC cells treated with SU093 or SU056. […] FIG. 1C) Representative colony formation from respective wells. FIG. 1D) Number of colonies formed after SU093 and SU056 treatment. […] FIG. 1F) Cell cycle distribution of propidium iodide (PI)-stained OVCAR8, SKOV3, and ID8 cells. […] FIG. 1G) Effects of SU093 and SU056 on apoptotic cell death analyzed by Annexin-FITC staining. […] FIG. 1H) Cell migration assay.

YB-1 = YB-1 expression in six ovarian cancer cell lines; format: cell-based; conditions: 2.5 μM for 12 h; six different OC cell lines
Procedure: Out of six targets identified, we selected proteins whose thermal shift is above 5° in the presence of SU056 for further study of protein expression after treatment. […] To study the in vivo effects of SU056 treatment, we analyzed ID8 tumor xenograft samples via immunohistochemistry (IHC). […] To identify the broader effects of SU056 on YB-1 and its downstream protein/activity in different ovarian cancer cell lines, we selected six different cell lines and treated them with SU056 (2.5 μM) for 12 h. Cells were analyzed for YB-1 and CD44 expression and Multidrug resistance 1 (MDR1, ABC pump mediated efflux). […] Finally, we tested the time kinetics and dose-dependent effects of SU056 on YB-1 expression. OVCAR4, OVCAR8, and SKOV3 cells were treated with SU056 (1, 2.5, and 5 μM) for 3, 6, 12, and 24 h and YB-1 expression was measured using YB-1 ELISA. […]
Total YB-1 sandwich ELISA: Total YB-1 protein level was analyzed using PathScan® Total YB1 Sandwich ELISA Kit (Cell Signaling, #12543) by following the manufacturer's protocol.
as §1

O=C1OCC2=C1C(c1cccc(F)c1)c1cc3c(cc1N2CCO)OCO3 (centres unmarked) [SU056, 9-(3-fluorophenyl)-5-(2-hydroxyethyl)-6,9-dihydro-[1,3]dioxolo[4,5-g]furo[3,4-b]quinolin-8(5H)-one]
cell cycle distribution in TNBC cells [1]: G2/M phase arrest
inhibition at 1 µM (OC cell lines): 78 to 87%
YB-1 and MDR1 expression in tumors (IHC) (YB-1 and MDR1 expression): strongly inhibits YB-1 expression followed by downregulation of downstream MDR1
decrease of IC50 compared to SU093 [2]: up to 2 fold
inhibition of YB-1 expression (YB-1): 28-56%
